± gives the expanded uncertainty stated by the source.
Conditions: 101.33 kPa, Liquid; for speed of sound: Sing-around technique in a fixed-path interferometer

| SMILES | mass density (283.15 K) [kg/m3] | speed of sound (283.15 K) [m/s] | mass density (298.15 K) [kg/m3] | speed of sound (298.15 K) [m/s] | mass density (313.15 K) [kg/m3] | speed of sound (313.15 K) [m/s] |
| --- | --- | --- | --- | --- | --- | --- |
| CCCCCO [pentan-1-ol] | 821.79 ± 0.92 | 1325.9 ± 1.3 | 810.83 ± 0.95 | 1274.1 ± 1.2 | 799.8 ± 0.98 | 1225.5 ± 1.2 |
| CCCC(C)O (stereo not drawn) [pentan-2-ol] | 816.77 ± 1.9 | 1286.7 ± 2.1 | 804.97 ± 1.9 | 1232.6 ± 2.1 | 792.42 ± 2 | 1168.1 ± 2.1 |
| C=C1CCC2CC1C2(C)C (stereo not drawn) [β-pinene] | 879.07 ± 0.77 | 1354.3 ± 1.3 | 867.11 ± 0.8 | 1295.6 ± 1.3 | 854.87 ± 0.83 | 1236.3 ± 1.2 |
